# From patent publication US20240358744A1, “WOUND HEALING DRESSINGS AND FORMULATIONS AND METHODS OF USE THEREOF” (POLAROID IP B.V., priority 2023, published 2024)
# Columns and labels:
# [1] = tested on: Escherichia coli ATCC 25922; experiment: MBC, spot plating after 24 h; conditions: for MBC EC25922: Table 18
# Protocol: (§5) To determine MBC compound concentrations breakpoints were estimated from MIC curves. Overnight cultures were set up as described above for all bacterial strains. The following day overnight cultures were adjusted to give a cell density of 5×10^5 cells per mL. Briefly, cultures were adjusted to the McFarland standard (0.08-0.12) and diluted (1:150). Adjusted cultures were inoculated into 96 well plates with 50 μL sterile Muller-Hinton broth (MHB) and 2 concentrations of each compound. […] MBC cultures were quantified by serial dilution in a 96 well plate and spot plating onto Muller-Hinton agar (MHA). MHA plates were incubated at 37° C. for 24 h and counted. Results are presented as CFU per mL.
# (§6) To determine MBC compound concentrations, breakpoints were estimated from MIC curves. Overnight cultures were set up as described above for all bacterial strains. The following day overnight cultures were adjusted to give a cell density of 5×10^5 cells per mL. Briefly, cultures were adjusted to the McFarland standard (0.08-0.12) and diluted (1:150). Adjusted cultures were inoculated into 96 well plates with 50 μL sterile Muller-Hinton broth (MHB) and 2 concentrations of each compound. […] MBC cultures were quantified by serial dilution in a 96 well plate and spot plating onto Muller-Hinton agar (MHA). MHA plates were incubated at 37° C. for 24 hours and counted.
# [2] = tested on: Primary Human Dermal Fibroblast (HDFs); experiment: LDH cytotoxicity assay, HDF; type: cell-based; conditions: Table 16, summarized cell toxicity value, 24 hours treatment
# Protocol: (§1) Primary Human Dermal Fibroblast (HDFs) and Human Keratinocyte (HaCaT) cells were selected for cytotoxicity and proliferation testing. HDFs were cultured in high glucose, no glutamine, no phenol red, Dulbecco's Modified Eagle Medium (DMEM) (GIBCO™). HDF media was further supplemented with 10% heat-inactivated fetal bovine serum (GIBCO™), 1% L-glutamine (GIBCO™) and 1% Penicillin-streptomycin (GIBCO™). HaCaTs cells were cultured in high glucose, no glutamine, no calcium DMEM (GIBCO™) supplemented with 10% heat inactivated foetal bovine serum, 1% L-glutamine, 1% Penicillin-streptomycin 1 mM calcium chloride (Sigma) throughout.
# (§2) Mammalian cell populations were maintained in standard culture conditions at 37° C., 5% CO2 and >95% relative humidity. Upon reaching 80% total confluency, cells were removed from the incubator, the culture media aspirated, and the monolayer washed with Dulbecco's […] (DPBS). After washing, 10 mL of 1% trypsin (GIBCO™) was added to the flask and incubated to facilitate the detachment of cells from the culture vessel. Following dissociation, 10 mL of culture media was then added to each flask to neutralize the trypsin enzyme activity. The total 20-mL flask volume was transferred into a universal tube and centrifuged at 400 rcf for 5 minutes. Once complete, the pellet of cells was re-suspended in 10 mL warmed culture media and the number of cells per mL was determined using a hemocytometer counting chamber. Cell suspensions were then adjusted to 5×10^4 cells/mL for HDFs and 1×10^5 cells/mL for HaCaTs. 100 μL of the cell suspension was added to each well of a sterile, cell-culture-treated 96-well microtiter plate. The plates were incubated in standard culture conditions for 16-24 hours to allow cellular adherence to the culture vessel. […] Culture plates were removed from the incubator, the media removed; and monolayers washed with 100 μL of warmed DPBS. The contents of the test item dilution plates were transferred to the culture plates. […]
# (§3) The secretion of lactate dehydrogenase (LDH) enzyme was used for quantitatively measuring cell damage and cytotoxicity. As damage to the cell plasma membrane releases LDH into the cell culture media, the extracellular LDH in the media can be quantified by a coupled enzymatic reaction in which LDH catalyzes the conversion of lactate to pyruvate via NAD+ reduction to NADH. […]
# (§4) Following incubation with the selected compounds, 50 μL of media from each well was transferred to the corresponding well of a fresh 96 well culture plate. The presence of Lactate dehydrogenase (LDH) was then quantified using the INVITROGEN™ CyQUANT™ LDH Cytotoxicity Assay, fluorescence kit. Total fluorescence was measured by reading the plates on a plate reader at an excitation of 560 nm and an emission of 590 nm. […]
# [3] = tested on: Enterococcus faecalis ATCC 19433; experiment: MIC, broth microdilution in MH broth (resazurin); conditions: Table 17, modified Gompertz model
# [4] = tested on: Human Keratinocyte (HaCaT) cells; experiment: LDH cytotoxicity assay, HaCaT; type: cell-based; conditions: Table 16, summarized cell toxicity value, 24 hours treatment
# Protocol: as §1, §2, §3, §4
# [5] = tested on: Klebsiella pneumoniae KL1; experiment: MIC, broth microdilution in MH broth (resazurin); conditions: Table 17; modified Gompertz model; not marked ^: unreliable estimation, interpret with caution
# [6] = tested on: Klebsiella pneumoniae KL1; experiment: MBC, spot plating after 24 h
# Protocol: as §5, §6
# [7] = tested on: Staphylococcus aureus MR1; experiment: MIC, broth microdilution in MH broth (resazurin); conditions: Table 17; modified Gompertz model; not marked ^: unreliable estimation, interpret with caution
# [8] = tested on: Pseudomonas aeruginosa ATCC 27853; experiment: MIC, broth microdilution in MH broth (resazurin); conditions: Table 17; modified Gompertz model; not marked ^: unreliable estimation, interpret with caution
# [9] = tested on: Escherichia coli ATCC 25922; experiment: MIC, broth microdilution in MH broth (resazurin); conditions: Table 17; modified Gompertz model; not marked ^: unreliable estimation, interpret with caution
# [10] = tested on: Staphylococcus aureus MR1; experiment: MBC, spot plating after 24 h; conditions: Example 11
# Protocol: as §5, §6
# [11] = tested on: Enterococcus faecalis ATCC 19433; experiment: MBC, spot plating after 24 h; conditions: Enterococcus faecalis EF19433; Example 11
# Protocol: as §5, §6
# [12] = tested on: Staphylococcus aureus NRS384; type: cell-based; conditions: Example 11
# [13] = tested on: Staphylococcus aureus ATCC 29213; experiment: MBC, spot plating after 24 h; conditions: Staphylococcus aureus 29213; Example 11
# Protocol: as §5, §6
# [14] = tested on: Enterococcus faecalis ATCC 51299; experiment: MBC, spot plating after 24 h; conditions: Enterococcus faecalis EF51299; Example 11
# Protocol: as §5, §6
# [15] = tested on: Pseudomonas aeruginosa ATCC 27853; experiment: MBC, spot plating after 24 h; conditions: Pseudomonas aeruginosa 27853; Example 11
# Protocol: as §5, §6
# [16] = Assessment of MIC of select compounds, DMSO stocks (Example 8, Table 21); type: cell-based
# [17] = tested on: Staphylococcus aureus NRS384; experiment: Murine wound infection model, bacterial CFU/wound (Example 6); conditions: Study 2 pilot; daily application of vancomycin (10 μg per wound)
# [18] = tested on: S. aureus NRS 384; experiment: Mouse Staphylococcus aureus-induced wound infection model, bacteria load in wound site (Studies I-V); conditions: for Ig(CFU/wound site) / ΔIg(CFU/wound site) vs infection control: Study III (Table 12), 1 mg/ml
# [19] = 10 μL/wound site, 10 μg/wound site, twice a day, 24 h p.i.
# [20] = 10 μL/wound site, 10 μg/wound site, twice a day, 48 h p.i.
# [21] = 10 μL/wound site, 10 μg/wound site, twice a day, 72 h p.i.
# [22] = 50 μL/wound site, 50 μg/wound site, twice a day, 24 h p.i.
structure (smiles),measurement,setting,value
CCCCCCCCCCCCCCCCCC[N+](C)(C)CCOCCO.[Br-] [39637 105543],MBC EC25922,[1],25 µM
CCCCCCCCCCCCCCCCCC[N+](C)(C)CCOCCO.[Br-] [Compound 39637_105543],"Mammalian Cell Cytotoxicity, HDF",[2],6.3 µM
same,MIC EF19433,[3]; marked ^: reliable estimation of MIC,3.20^ μM
same,"Mammalian Cell Cytotoxicity, HaCaT",[4],6.3 µM
same,MIC KL1,[5],+infinity
CCCCCCCCCCCCCCCCCC[N+](C)(C)CCOCCO.[Br-] [Compound 39637_109466],MBC KL1,[6]; Table 18,50 µM
same,"Mammalian Cell Cytotoxicity, HDF",[2],6.3 µM
same,MBC EC25922,[1],25 µM
same,"Mammalian Cell Cytotoxicity, HaCaT",[4],6.3 µM
CCCCCCCCCCCC[N+](C)(C)CCOCCO.[Br-] [Compound 40597_109444],MIC MR1,[7],0.94 µM
same,"Mammalian Cell Cytotoxicity, HDF",[2],100 µM
same,"Mammalian Cell Cytotoxicity, HaCaT",[4],100 µM
same,MIC KL1,[5],0.01 µM
CCCCCC[N+](C)(C)CCOCCO.[Br-] [Compound 40598_109448],"Mammalian Cell Cytotoxicity, HDF",[2],>100 µM
same,MIC PA27853,[8],0.06 µM
same,MIC EF19433,"[3]; not marked ^: unreliable estimation, interpret with caution",Unstable
same,MIC EC25922,[9],0.83 µM
same,"Mammalian Cell Cytotoxicity, HaCaT",[4],>100 µM
CN[C@H](CC(C)C)C(=O)N[C@H]1C(=O)N[C@@H](CC(N)=O)C(=O)N[C@H]2C(=O)N[C@H]3C(=O)N[C@H](C(=O)N[C@H](C(=O)O)c4cc(O)cc(O)c4-c4cc3ccc4O)[C@H](O)c3ccc(c(Cl)c3)Oc3cc2cc(c3O[C@@H]2O[C@H](CO)[C@@H](O)[C@H](O)[C@H]2O[C@H]2C[C@](C)(N)[C@H](O)[C@H](C)O2)Oc2ccc(cc2Cl)[C@H]1O [Van],MBC Concentration (μM) F,"[6]; Klebisella pneumoniae KL1, Example 11",1.25 µM
same,MBC Concentration (μM) B,[10],0.02 µM
same,MBC Concentration (μM) E,[11],0.08 µM
same,MBC Concentration (μM) C,[12],0.02 µM
same,MBC Concentration (μM) A,[13],0.02 µM
same,MBC Concentration (μM) H,"[1]; Escherichia coli EC25922, Example 11",0.31 µM
same,MBC Concentration (μM) D,[14],0.04 µM
same,MBC Concentration (μM) G,[15],2.50 µM
CN[C@H](CC(C)C)C(=O)N[C@H]1C(=O)N[C@@H](CC(N)=O)C(=O)N[C@H]2C(=O)N[C@H]3C(=O)N[C@H](C(=O)N[C@H](C(=O)O)c4cc(O)cc(O)c4-c4cc3ccc4O)[C@H](O)c3ccc(c(Cl)c3)Oc3cc2cc(c3O[C@@H]2O[C@H](CO)[C@@H](O)[C@H](O)[C@H]2O[C@H]2C[C@](C)(N)[C@H](O)[C@H](C)O2)Oc2ccc(cc2Cl)[C@H]1O [Vancomycin],MIC Concentration,[16]; Enterococcus faecalis EF19433,5.00 µM
same,MIC Concentration,[16]; Escherichia coli EC25922,0.63 µM
same,MIC Concentration,[16]; Klebisella oxytoca KL1,0.63 µM
same,MIC Concentration,[16]; Pseudomonas aeruginosa 27853,5.00 µM
same,MIC Concentration,[16]; Staphylococcus aureus 29213,0.04 µM
same,MIC Concentration,[16]; Staphylococcus aureus MR1,0.04 µM
same,MIC Concentration,[16]; Staphylococcus aureus NRS384,0.04 µM
same,log reduction in wound S. aureus at 24 hrs post-seeding,[17],1 log
same,log reduction in wound S. aureus at 72 hrs post-seeding,[17],1 log
same,Ig (CFU/wound site) 12 h p.i.,"[18]; Study I, inoculum 4.20E+06 CFU/wound site, 39637 and 20-1 100 μM, 50 μL/wound site, once a day, Vancomycin 1 mg/ml, 10 μL/wound site, twice a day, starting at 5 min p.i.",8.47 ± 0.22 Ig (CFU/wound site)
same,Ig (CFU/wound site) 24 h p.i.,"[18]; Study I, same regimens as E1",7.67 ± 0.60 Ig (CFU/wound site)
same,ΔIg (CFU/wound site) vs 12 h infection control,"[18]; Study I, same regimens as E1",−0.11 ± 0.22 Ig (CFU/wound site)
same,ΔIg (CFU/wound site) vs 24 h infection control,"[18]; Study I, same regimens as E1",−1.12 ± 0.60 Ig (CFU/wound site)
same,effect at 12-hour post infection,"[18]; Study I, single dose at 10 μg",not manifest
same,Ig(CFU/wound site),[18]; [19],7.67 Ig(CFU/wound site)
same,ΔIg(CFU/wound site) vs infection control,[18]; [19],−1.11 Ig(CFU/wound site)
same,Ig(CFU/wound site),[18]; [20],5.29 Ig(CFU/wound site)
same,ΔIg(CFU/wound site) vs infection control,[18]; [20],−3.28 Ig(CFU/wound site)
same,Ig(CFU/wound site),[18]; [21],5.12 Ig(CFU/wound site)
same,ΔIg(CFU/wound site) vs infection control,[18]; [21],−2.83 Ig(CFU/wound site)
same,Ig(CFU/wound site),[18]; [22],4.37 Ig(CFU/wound site)
same,ΔIg(CFU/wound site) vs infection control,[18]; [22],−4.40 Ig(CFU/wound site)
